In US6737383B1, “Herbicidal oxadiazolidines” (priority 1999, dated 2004):

Columns and labels:
common pursiane = assay: Test D common purslane; assay type: in vivo, Portulaca oleracea; settings: Preemergence, 0 to 100 scale
Method in brief: (§1)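 Each weed species is planted in its own pot or compartment; preemergence doses go on the sandy loam surface within a day. The formulation is a surfactant-containing, non-phytotoxic solvent blend. Ratings come from visual comparison with untreated controls 14 to 21 days later, where 100 means complete control.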

common ragweed = assay: Test D common ragweed; assay type: in vivo, Ambrosia elatior; settings: Preemergence, 0 to 100 scale
Method in brief: as §1

purple nutsedge = assay: Test D purple nutsedge; assay type: in vivo, Cyperus rotundus; settings: Preemergence, 0 to 100 scale
Method in brief: as §1

surinam grass = assay: Test D surinam grass; assay type: in vivo, Brachiaria decumbens; settings: Preemergence, 0 to 100 scale
Method in brief: as §1

guineagrass = assay: Test D guineagrass; assay type: in vivo, Panicum maximum; settings: Preemergence, 0 to 100 scale
Method in brief: as §1

bermuda-grass = assay: Test D bermudagrass; assay type: in vivo, Cynodon dactylon; settings: Preemergence, 0 to 100 scale
Method in brief: as §1

common groundsel = assay: Test D common groundsel; assay type: in vivo, Senecio vulgaris; settings: Preemergence, 0 to 100 scale
Method in brief: as §1

Spanishneedles = assay: Test D Spanishneedles; assay type: in vivo, Bidens bipinnata; settings: Preemergence, 0 to 100 scale
Method in brief: as §1

itchgrass = assay: Test D itchgrass; assay type: in vivo, Rottboellia exaltata; settings: Preemergence, 0 to 100 scale
Method in brief: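 Scoring used a 0–100 visual injury scale, with 0 meaning no effect and 100 complete control, assessed 14–21 days after application alongside untreated pots. Preemergence treatments went onto sandy loam surfaces of separately potted seeds within a day of sowing.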

Green foxtail [1] = assay: Test D green foxtail; assay type: in vivo; settings: Preemergence, 0 to 100 scale
Method in brief: as §1

Green foxtail [2] = assay: Test D green foxtail; assay type: in vivo
Method in brief: as §1

pitted morningglory = assay: Test D pitted morningglory; assay type: in vivo, Ipomoea lacunosa; settings: Preemergence, 0 to 100 scale
Method in brief: as §1

dallisgrass = assay: Test D dallisgrass; assay type: in vivo, Paspalum dilatatum; settings: Preemergence, 0 to 100 scale
Method in brief: as §1

large crabgrass = assay: Test D large crabgrass; assay type: in vivo, Digitaria sanguinalis; settings: Preemergence, 0 to 100 scale
Method in brief: as §1

[3] = Rate 16 g/ha, 0 no injury, 100 complete control
[4] = Rate 32 g/ha, 0 no injury, 100 complete control
[5] = Rate 64 g/ha, 0 no injury, 100 complete control
[6] = Rate 125 g/ha, 0 no injury, 100 complete control
[7] = Rate 64 g/ha, Preemergence; 0 to 100 scale, 0 no injury, 100 complete control
[8] = Rate 125 g/ha, Preemergence; 0 to 100 scale, 0 no injury, 100 complete control

## COc1ccccc1-n1c(=O)on(C(=O)N(c2ccc(F)cc2)C(C)C)c1=O [Compound 30]
Common pursiane; [3]
  Plant response rating, C. purslane: 0
Common pursiane; [4]
  Plant response rating, C. purslane: 0
Common pursiane; [5]
  Plant response rating, C. purslane: 0
Common pursiane; [6]
  Plant response rating, C. purslane: 0
Common pursiane; Rate 250 g/ha
  Plant response rating, C. purslane: 0
Common pursiane; Rate 500 g/ha
  Plant response rating, C. purslane: 0
Common ragweed; [3]
  Plant response rating, C. ragweed: 0
Common ragweed; [4]
  Plant response rating, C. ragweed: 0
Common ragweed; [5]
  Plant response rating, C. ragweed: 0
Common ragweed; [6]
  Plant response rating, C. ragweed: 0
Common ragweed; Rate 250 g/ha
  Plant response rating, C. ragweed: 0
Common ragweed; Rate 500 g/ha
  Plant response rating, C. ragweed: 0
Purple nutsedge; [3]
  Plant response rating, Purple nutsedge: 0
Purple nutsedge; [4]
  Plant response rating, Purple nutsedge: 0
Purple nutsedge; [5]
  Purple nutsedge plant response rating: 0
Purple nutsedge; [6]
  Purple nutsedge plant response rating: 0
Purple nutsedge; Rate 250 g/ha
  Plant response rating, Purple nutsedge: 0
Purple nutsedge; Rate 500 g/ha
  Plant response rating, Purple nutsedge: 0
Surinam grass; [4]
  Plant response rating, Surinam grass: 40
Surinam grass; [5]
  Surinam grass plant response rating: 40
Surinam grass; [6]
  Surinam grass plant response rating: 40
Surinam grass; Rate 250 g/ha
  Plant response rating, Surinam grass: 85
Surinam grass; Rate 500 g/ha
  Plant response rating, Surinam grass: 85
guineagrass; [3]
  Plant response rating, Guineagrass: 30
guineagrass; [4]
  Plant response rating, Guineagrass: 30
guineagrass; [5]
  Plant response rating, Guineagrass: 40
guineagrass; [6]
  Plant response rating, Guineagrass: 75
guineagrass; Rate 250 g/ha
  Plant response rating, Guineagrass: 98
guineagrass; Rate 500 g/ha
  Plant response rating, Guineagrass: 98
bermuda-grass; [3]
  Plant response rating, Bermudagrass: 50
bermuda-grass; [4]
  Plant response rating, Bermudagrass: 65
bermuda-grass; [5]
  Plant response rating, Bermudagrass: 98
bermuda-grass; [6]
  Plant response rating, Bermudagrass: 98
bermuda-grass; Rate 250 g/ha
  Plant response rating, Bermudagrass: 98
bermuda-grass; Rate 500 g/ha
  Plant response rating, Bermudagrass: 100
Common groundsel; [3]
  Plant response rating, Com. groundsel: 0
Common groundsel; [4]
  Plant response rating, Com. groundsel: 0
Common groundsel; [5]
  Plant response rating, Com. groundsel: 0
Common groundsel; [6]
  Plant response rating, Com. groundsel: 0
Common groundsel; Rate 250 g/ha
  Plant response rating, Com. groundsel: 0
Common groundsel; Rate 500 g/ha
  Plant response rating, Com. groundsel: 100
Spanishneedles; [3]
  Plant response rating, Spanishneedles: 0
Spanishneedles; [4]
  Plant response rating, Spanishneedles: 0
Spanishneedles; [5]
  Spanishneedles plant response rating: 0
Spanishneedles; [6]
  Spanishneedles plant response rating: 0
Spanishneedles; Rate 500 g/ha
  Plant response rating, Spanishneedles: 0
itchgrass; [3]
  Plant response rating, Itchgrass: 20
itchgrass; [4]
  Plant response rating, Itchgrass: 20
itchgrass; [5]
  Plant response rating, Itchgrass: 40
itchgrass; [6]
  Plant response rating, Itchgrass: 75
itchgrass; Rate 250 g/ha
  Plant response rating, Itchgrass: 75
Green foxtail [1]; Rate 250 g/ha
  Plant response rating, Green foxtail: 100
Green foxtail [1]; Rate 500 g/ha
  Plant response rating, Green foxtail: 100
Green foxtail [2]; Preemergence; Rate 16 g/ha; 0 to 100 scale, 0 no injury, 100 complete control
  Plant response rating, Green foxtail: 0
Green foxtail [2]; Preemergence; Rate 32 g/ha; 0 to 100 scale, 0 no injury, 100 complete control
  Plant response rating, Green foxtail: 50
Green foxtail [2]; Rate 16 g/ha; Preemergence; 0 to 100 scale, 0 no injury, 100 complete control
  Plant response rating, Green foxtail: 0
Green foxtail [2]; [7]
  Green foxtail plant response rating: 85
  Plant response rating, Green foxtail: 85
Green foxtail [2]; [8]
  Green foxtail plant response rating: 85
  Plant response rating, Green foxtail: 85
Green foxtail [2]; Rate 250 g/ha; Preemergence; 0 to 100 scale
  Plant response rating, Green foxtail: 100
Green foxtail [2]; Rate 500 g/ha, Preemergence; 0 to 100 scale
  Plant response rating, Green foxtail: 100
Pitted morningglory; [3]
  Plant response rating, P. morninglory: 0
Pitted morningglory; [4]
  Plant response rating, P. morninglory: 0
Pitted morningglory; [5]
  Plant response rating, P. morninglory: 0
Pitted morningglory; [6]
  Plant response rating, P. morninglory: 0
Pitted morningglory; Rate 250 g/ha
  Plant response rating, P. morninglory: 0
Pitted morningglory; Rate 500 g/ha
  Plant response rating, P. morninglory: 0
dallisgrass; [3]
  Plant response rating, Dallisgrass: 0
dallisgrass; [4]
  Plant response rating, Dallisgrass: 0
dallisgrass; [5]
  Plant response rating, Dallisgrass: 50
dallisgrass; [6]
  Plant response rating, Dallisgrass: 60
dallisgrass; Rate 250 g/ha
  Plant response rating, Dallisgrass: 80
dallisgrass; Rate 500 g/ha
  Plant response rating, Dallisgrass: 100
Large crabgrass; [3]
  Plant response rating, Large crabgrass: 40
Large crabgrass; [4]
  Plant response rating, Large crabgrass: 40
Large crabgrass; [5]
  Plant response rating, Large crabgrass: 85
Large crabgrass; [6]
  Plant response rating, Large crabgrass: 98
Large crabgrass; Rate 250 g/ha
  Plant response rating, Large crabgrass: 98
Large crabgrass; Rate 500 g/ha
  Plant response rating, Large crabgrass: 100
